Measured values: patent US20250051301A1, “MUTANT IDH1 AND IDH2 INHIBITOR AND APPLICATION THEREOF” (Betta Pharmaceuticals Co., Ltd, priority 2022, published 2025)
In brackets after ≈: the same amount, converted by molar mass.

How the values were obtained:
[1] = Kinetic solubility experiment; format: physicochemical; conditions: buffer, kinetic from dmso stock
Protocol: 1. Preparation of Solutions/Buffers at Different pH Values
• Solution A: 17.42 g of K2HPO4 was weighed and dissolved in 1 L of ultrapure water. • Solution B: 13.65 g of KH2PO4 was weighed and dissolved in 1 L of ultrapure water.
A certain mass of substance to be tested was accurately weighed and dissolved in a certain volume of DMSO to obtain a 20 mM or 10 mM stock solution.
An acetonitrile stopping solution containing 1 ng/mL of labetalol and glibenclamide was prepared.
3. Incubation System (n=3)
The above-mentioned solutions were placed in a 96-well plate, respectively and shaken in a thermostatic oscillator for 2 hours (37° C., 150 rpm).
4. Control solution: 200 μM control solution of the substance to be tested was prepared in methanol. 5. Sample treatment
At a predetermined time, the 96-well plate was placed in a centrifuge and centrifuged at 4100 rpm for 15 minutes. A certain volume of the supernatant and a certain volume of control solution were respectively taken into 19 times volume of water containing 70% acetonitrile that has been previously added. The mixture was uniformly mixed, diluted 20 times with an internal standard stop solution and shaken in a thermostatic oscillator at 700 rpm at room temperature for 5 min. Further dilution may be necessary depending on the sensitivity of the compound, and sample analysis was performed by LC-MS/MS.
The ratio of compound peak area to internal standard peak area was used for calculation. According to the concentration relationship between the compound in the buffer and the control solution, the calculated concentration was the kinetic solubility, and the calculation formula was as follows:
Solubility(μg/mL)=mass spectral peak area of the compound to be tested in buffers at different pHs×200μM×molecular weight of the compound to be tested(MW)/mass spectral peak area of the compound to be tested in methanol/1000;

[2] = Pharmacokinetic detection in dogs; format: in vivo; conditions: beagle dogs
Protocol: Adult beagle dogs (6-12 months of age) received a single dose of the compounds to be tested via intravenous administration (IV) or oral gavage administration (PO), respectively. In the IV single dose, 5% DMSO+5% Solutol+90% physiological saline was used as the excipient; the intravenous administration was carried out at a dose of 1 mg/kg (2 females and 2 males); and the venous blood collection time was 5 min, 15 min, 0.5 h, 1 h, 2 h, 4 h, 6 h, 8 h, 10 h and 24 h. In the PO single dose, 5% DMSO+5% Solutol+90% purified water was used as the excipient; the oral gavage administration was carried out at a dose of 5 mg/kg (2 females and 2 males); and the blood collection time was 15 min, 0.5 h, 1 h, 2 h, 4 h, 6 h, 8 h, 10 h and 24 h. Blood samples were collected in tubes containing EDTA anticoagulants and centrifuged at 4000 rpm at 4° C. for 10 min, and the supernatants were transferred to centrifuge tubes and stored at −20° C. For the detection, 30 μL of the plasma supernatant sample was taken, and 200 μL of an internal standard solution was added. The mixture was centrifuged at 3000 rpm for 10 minutes. Then, 100 μL of the supernatant solution was diluted with water at a 1:1 ratio and then injected with an injection volume of 5 μL. The concentration of the compounds to be tested in the plasma sample was analyzed by liquid chromatography-tandem mass spectrometry (LC-MS/MS). Plasma concentration-time data for individual animals were analyzed using Sciex Analyst software. The non-compartment model was introduced into the concentration analysis, and pharmacokinetic parameters (Cl_obs, Cmax and AUClast) of the compounds to be tested were calculated using WinNonlin (version 4.1; pHarsight) software.

[3] = both sexes, dog, plasma, PO, 5 mg/kg

C[C@@H](Nc1nc(N[C@H](C)C(F)(F)F)nc(-c2cc(F)c(N)c(Cl)n2)n1)C(F)(F)F [Example 5, 6-(5-amino-6-chloro-4-fluoropyridin-2-yl)-N^2,N^4-bis((R)-1,1,1-trifluoropropyl-2-yl)-1,3,5-triazine-2,4-diamine]
solubility at 2 h ([1]; aqueous buffer, pH = 3.0, 37° C.): 53.3 µg/mL (≈ 119 µM)
solubility at 2 h ([1]; aqueous buffer, pH = 5.0, 37° C.): 59.5 µg/mL (≈ 133 µM)
solubility at 2 h ([1]; aqueous buffer, pH = 7.4, 37° C.): 48.1 µg/mL (≈ 107 µM)
solubility at 2 h ([1]; simulated gastric fluid, pH = 1.0, 37° C.): 86.6 µg/mL (≈ 193 µM)
Cl_obs ([2]; IV, 1 mg/kg): 5.1 mL/min/kg
AUC(0-t) ([2]; both sexes, dog, plasma, IV, 1 mg/kg): 2630 ng·h/mL
AUC(0-t) [2, 3]: 11700 ng·h/mL
Cmax [2, 3]: 1160 ng/mL
